Reference: ChEMBL document CHEMBL1129707, “Identification and biological activity of novel peptidomimetic gastrin/CCK-B receptor agonists” (Bioorg Med Chem Lett, 1996)

Tests used:
[1] = molecular target: T1, Gastrin/cholecystokinin type B receptor (Rattus norvegicus, UniProt P30553); experiment: Tested for displacement of [125I]-CCK-8 from Gastrin/Cholecystokinin type B receptor in rat brain.; assay type: tissue-based
T1 sequence (P30553 whole entry): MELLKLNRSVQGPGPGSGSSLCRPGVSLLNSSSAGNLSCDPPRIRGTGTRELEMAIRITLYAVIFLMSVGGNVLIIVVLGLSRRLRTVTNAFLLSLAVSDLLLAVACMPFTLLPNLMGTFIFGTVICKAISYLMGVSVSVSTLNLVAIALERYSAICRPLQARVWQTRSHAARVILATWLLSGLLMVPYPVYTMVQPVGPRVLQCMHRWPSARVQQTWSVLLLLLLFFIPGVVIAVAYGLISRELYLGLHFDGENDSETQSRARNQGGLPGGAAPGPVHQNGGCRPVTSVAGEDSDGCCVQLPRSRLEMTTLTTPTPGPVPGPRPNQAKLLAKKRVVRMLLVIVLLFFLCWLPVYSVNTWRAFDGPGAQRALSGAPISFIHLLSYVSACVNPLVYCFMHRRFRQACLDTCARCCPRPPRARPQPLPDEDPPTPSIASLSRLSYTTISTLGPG

[2] = molecular target: T2, Cholecystokinin receptor type A (Rattus norvegicus, UniProt P30551); experiment: Tested for displacement of [3H]-L-364,718 from Cholecystokinin type A receptor in rat pancreas.
T2 sequence (P30551 whole entry): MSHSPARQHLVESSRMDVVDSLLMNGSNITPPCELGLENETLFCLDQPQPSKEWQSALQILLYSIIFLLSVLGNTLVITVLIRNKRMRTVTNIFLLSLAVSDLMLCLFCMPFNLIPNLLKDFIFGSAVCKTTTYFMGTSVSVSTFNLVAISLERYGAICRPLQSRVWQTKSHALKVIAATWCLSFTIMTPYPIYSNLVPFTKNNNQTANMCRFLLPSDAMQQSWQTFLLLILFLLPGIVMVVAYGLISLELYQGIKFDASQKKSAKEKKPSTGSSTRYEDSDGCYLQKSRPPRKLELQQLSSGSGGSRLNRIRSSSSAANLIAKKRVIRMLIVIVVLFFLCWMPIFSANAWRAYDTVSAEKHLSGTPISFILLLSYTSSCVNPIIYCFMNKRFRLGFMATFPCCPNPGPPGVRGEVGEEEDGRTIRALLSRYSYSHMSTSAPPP

Compound | IC50 [1] [nM] | IC50 [2] [nM]
CCCC[C@H](NC(=O)Cc1c[nH]c2ccccc12)C(=O)N(CCc1ccccc1)CC(=O)O | 165 | 
CCCC[C@H](NC(=O)Cc1c[nH]c2ccccc12)C(=O)N(CCc1ccccc1)CC(=O)N1CCC[C@H]1C(=O)O | 34 | 
CCCC[C@H](NC(=O)Cc1c[nH]c2ccccc12)C(=O)N(CCC1CCCCC1)CC(=O)N1CCC[C@H]1C(=O)O | 2.3 | > 10000
CC(C)(C)OC(=O)N1c2ccccc2C[C@@H]1C(=O)N1[C@@H](C(=O)N2Cc3ccccc3C[C@@H]2C(N)=O)CC[C@H]1c1ccccc1 | 170 | > 10000
CC(C)(C)OC(=O)N1c2ccccc2C[C@@H]1C(=O)N1[C@@H](C(=O)N2CCc3ccccc3C2)CC[C@H]1c1ccccc1 | 52 | > 10000
CC(C)C[C@@H](C(=O)N[C@@H](CC(=O)O)C(=O)N[C@@H](Cc1ccccc1)C(N)=O)N1CC(=O)N[C@H](Cc2c[nH]c3ccccc23)C1=O | 37.7 | 
CCCC[C@H](NC(=O)Cc1c[nH]c2ccccc12)C(=O)N(CCC1CCCCC1)CC(=O)O | 370 | > 10000
CCCC[C@H](NC(=O)Cc1c[nH]c2ccccc12)C(=O)N(CCC1CCCCC1)CC(=O)N1CCCC1 | 146 | > 10000
O=C(Cc1c[nH]c2ccccc12)N[C@@H](Cc1ccccc1)C(=O)N(CCC1CCCCC1)CC(=O)N1CCC[C@H]1C(=O)O | 0.94 | > 10000
CCC[C@@H]1CCN(C(=O)[C@@H]2Cc3c[nH]c4cccc(c34)CC(=O)N2)[C@@H]1C(=O)N[C@@H](CC(=O)O)C(=O)N[C@@H](Cc1ccccc1)C(N)=O | 0.7 | 
CC(C)(C)OC(=O)N1c2ccccc2C[C@@H]1C(=O)N1[C@@H](C(=O)N2Cc3ccccc3C[C@@H]2C(=O)N2CCC[C@@H]2C(=O)O)CC[C@H]1c1ccccc1 | 36 | > 10000
O=C(Cc1c[nH]c2ccccc12)N[C@@H](CCc1ccccc1)C(=O)N(CCC1CCCCC1)CC(=O)N1CCC[C@H]1C(=O)O | 17 | > 10000

Next, values leading:

IC50 [1] [nM] | IC50 [2] [nM] | Compound
39 | > 10000 | CC(C)(C)OC(=O)N1c2ccccc2C[C@@H]1C(=O)N1[C@@H](C(=O)N2Cc3ccccc3C[C@@H]2C(=O)O)CC[C@H]1c1ccccc1
0.25 | > 10000 | CC(C)(C)OC(=O)N1c2ccccc2C[C@@H]1C(=O)N1[C@@H](C(=O)N2Cc3ccccc3C[C@@H]2C(=O)N2CCCC2C(=O)O)CC[C@H]1c1ccccc1 (stereo partly specified)
300 |  | CCCC[C@H](NC(=O)Cc1c[nH]c2ccccc12)C(=O)N(CCc1ccccc1)CC(=O)N1CCCC1C(=O)O (stereo partly specified)
30.2 | > 10000 | CCCC[C@H](NC(=O)Cc1c[nH]c2ccccc12)C(=O)N(CC(=O)N1CCC[C@H]1C(=O)O)CC1CCCCC1
27 | > 10000 | CC(C)(C)OC(=O)N1c2ccccc2C[C@@H]1C(=O)N1[C@@H](C(=O)N2Cc3ccccc3C[C@@H]2C(=O)NCC(=O)O)CC[C@H]1c1ccccc1
35 | > 10000 | CC(C)(C)OC(=O)N1c2ccccc2C[C@@H]1C(=O)N1[C@@H](C(=O)N2Cc3ccccc3C[C@@H]2CC(=O)O)CC[C@H]1c1ccccc1
